Source: paper PMC9400670, “Establishing the selective phospholipid membrane coordination, permeation and lysis properties for a series of ‘druggable’ supramolecular self-associating antimicrobial amphiphiles” (Chemical Science, 2022)
In brackets after ≈: the same amount, converted by molar mass.

Tested on: not listed separately
Assay: Caco-2 permeability assay
Assay type: in vitro ADME, human
Details: human, Caco-2, % SSA recovered from the assay after 2 hours; read-out: Recovery (A-B)
Experimental: Section 4: DMPK Methods and Further Discussion […]
Caco-2 Permeability studies: The permeability assay for SSA 1-6 and 10 was performed at Cyprotex Discovery Limited (Macclesfield, UK) and analysed at Cancer Research Horizons. SSA 1-6 and 10 were incubated at a final concentration of 10 uM with human intestinal Caco-2 cells at 37°C, 5% CO2 with a relative humidity of 95%. After 120 minutes the apical compartment inserts and the companion plates were separated, and the apical and basolateral samples were transferred. Incubations were conducted in duplicate and the fluorescent membrane integrity marker; Lucifer Yellow was co-incubated with the SSA compounds at the start of the assay. Compounds of known permeability were used as controls and were within acceptance criteria. Further processing is described in:
Sample preparation and liquid chromatography-mass spectrometry analysis.
Sample preparation and liquid chromatography-mass spectrometry analysis: All samples were centrifuged at 3500 rpm at 4°C for 10 min to precipitate protein and enable sampling of supernatant prior to appropriate dilution for liquid chromatography-mass spectrometry (LC-MS/MS analysis). […]
(1.5 µm, 50 x 2.1 mm) at a temperature of 40°C and a binary mobile phase gradient at a flow rate of […]
0.4 mL/min. […]
For the purpose of apparent permeability determination, samples were analysed using a Waters I-Class ultra-high-performance liquid chromatography (UHPLC) system coupled to a Waters Vion mass spectrometer (Waters, Elstree, UK). Separation of analytes was achieved used an Accucore Vanquish C18+ column (1.5 µm, 50 x 2.1 mm) at a temperature of 40°C and a binary mobile phase gradient at a flow rate of 0.4 mL/min. Initial LC conditions for SSA 1-4 comprised 66% solvent A (0.1% formic acid + 5 mM ammonium acetate in water), 33% solvent B (0.1% formic acid + 5 mM ammonium acetate in methanol); this was ramped to 63% B at 1.8 min and 95% B at 1.9 min, held for 0.5 min and then immediately returned to initial conditions and held for the remaining 0.5 min of the method. Initial LC conditions for SSA 5-10 comprised 54% solvent A (0.1% formic acid + 5 mM ammonium acetate in water), 46% solvent B (0.1% formic acid + 5 mM ammonium acetate in methanol); this was ramped to 67% B at 1.8 min and 95% B at 1.9 min, held for 0.5 min and then immediately returned to initial conditions and held for the remaining 0.5 min of the method.
Sample analysis was by electrospray ionisation in negative ion mode. The capillary voltage was 2.5 kV, desolvation gas was 600°C.
For the purpose of PK determination of SSA 5, samples were analysed using a Waters I-Class ultra-high-performance liquid chromatography (UHPLC) system coupled to a Waters Xevo TQ-XS mass spectrometer. Separation of analytes was achieved using an Accucore Vanquish C18+ column (1.5 µm, 50 x 2.1 mm) at a temperature of 40°C and a binary mobile phase gradient at a flow rate of 0.4 mL/min. Initial LC conditions comprised 54% solvent A (0.1% formic acid + 5 mM ammonium acetate in water), 46% solvent B (0.1% formic acid + 5 mM ammonium acetate in methanol); this was ramped to 67% B at 1.8 min and 95% B at 1.9 min, held for 0.5 min and then immediately returned to initial conditions and held for the remaining 0.5 min of the method. Sample analysis was by electrospray ionisation combined with multiple reaction monitoring in negative ion mode. The […]
Mean blood concentration-time profile: Within these studies SSAs 3 and 5 were dosed at 1 mg/kg, to female CD-1 mice (n=9 per SSA) via an intravenous tail vein bolus dose formulation as solutions in 2 % DMSO/98 % water. Blood taken from the mouse tail vein was extracted by protein precipitation.
SSA concentrations were calculated through UPLC-MS/MS techniques, with tolbutamide as the internal standard. The assay met the acceptance criteria with >7 calibration standards within ± 20% of nominal concentration. The lower limit of quantitation was 2 ng/mL for both compounds. PK […]

Structure (SMILES)	recovery at 120 min, 10 µM [%]
O=C(NCS(=O)(=O)O)Nc1ccc(C(F)(F)F)cc1 [SSA 1]	93
O=C(NCCCS(=O)(=O)O)Nc1ccc(C(F)(F)F)cc1 [SSA 2]	97
O=C(O)CNC(=O)Nc1ccc(C(F)(F)F)cc1 [SSA 4]	93
O=C(NCS(=O)(=O)O)Nc1ccccc1-c1nc2ccccc2s1 [SSA 5]	79

The next lines start with the values.

recovery at 120 min, 10 µM [%]	Structure (SMILES)
59	Cc1ccc2nc(-c3ccc(NC(=O)NCS(=O)(=O)O)cc3)sc2c1 [SSA 6]
54	Cc1ccc2nc(-c3ccc(NC(=O)NCCCS(=O)(=O)O)cc3)sc2c1 [SSA 10]

Same assay, conditions: human, Caco-2, % SSA recovered from the assay after 2 hours; read-out: Recovery (B-A)

Structure (SMILES)	recovery at 120 min, 10 µM [%]
O=C(NCS(=O)(=O)O)Nc1ccc(C(F)(F)F)cc1 [SSA 1]	101
O=C(NCCCS(=O)(=O)O)Nc1ccc(C(F)(F)F)cc1 [SSA 2]	102
O=C(O)CNC(=O)Nc1ccc(C(F)(F)F)cc1 [SSA 4]	96
O=C(NCS(=O)(=O)O)Nc1ccccc1-c1nc2ccccc2s1 [SSA 5]	107

Other lines, results leading:

recovery at 120 min, 10 µM [%]	Structure (SMILES)
86	Cc1ccc2nc(-c3ccc(NC(=O)NCS(=O)(=O)O)cc3)sc2c1 [SSA 6]
95	Cc1ccc2nc(-c3ccc(NC(=O)NCCCS(=O)(=O)O)cc3)sc2c1 [SSA 10]

Same assay, conditions: human, Caco-2, Caco-2; 10 uM; 120 minutes; n = 2 technical repeats; read-out: Papp (B-A)

Structure (SMILES)	Papp B→A at 120 min, 10 µM [×10⁻⁶ cm/s]
O=C(NCS(=O)(=O)O)Nc1ccc(C(F)(F)F)cc1 [SSA 1]	5.4
O=C(NCCCS(=O)(=O)O)Nc1ccc(C(F)(F)F)cc1 [SSA 2]	1.7
O=C(O)CNC(=O)Nc1ccc(C(F)(F)F)cc1 [SSA 4]	2.3
O=C(NCS(=O)(=O)O)Nc1ccccc1-c1nc2ccccc2s1 [SSA 5]	21

Second part, the compound after the results:

Papp B→A at 120 min, 10 µM [×10⁻⁶ cm/s]	Structure (SMILES)
11	Cc1ccc2nc(-c3ccc(NC(=O)NCS(=O)(=O)O)cc3)sc2c1 [SSA 6]
6.7	Cc1ccc2nc(-c3ccc(NC(=O)NCCCS(=O)(=O)O)cc3)sc2c1 [SSA 10]

Same assay, conditions: human, Caco-2, Caco-2; in words; read-out: Papp (B-A) class

Structure (SMILES)	Papp B→A at 120 min, 10 µM [×10⁻⁶ cm/s]
O=C(NCS(=O)(=O)O)Nc1ccccc1-c1nc2ccccc2s1 [SSA 5]	> 10
Cc1ccc2nc(-c3ccc(NC(=O)NCS(=O)(=O)O)cc3)sc2c1 [SSA 6]	> 10

Tested on: MRSA USA300
Assay: MIC50 determination and initial screening from OD600 growth curves, MRSA USA300
Assay type: cell-based, Staphylococcus aureus
Details: Staphylococcus aureus, 15 h, MRSA USA300; n = 3; 0.5 McFarland standard; after 900 min; number in bracket = efficacy rank; SSA 11 estimated due to data quality
Excerpt: The antimicrobial activity of SSAs 1–14 was established against both a model Gram-positive, clinically relevant methicillin resistant Staphylococcus aureus (MRSA), and a model Gram-negative, E. coli bacteria, Table 1. Here MIC50 values are given in mM to enable the derivation of molecular structure: antimicrobial efficacy: physical property relationships. […]
Data were acquired in endpoint mode. […]
Section 3: Microbial Methods
These methods were taken directly from UK Health and Security Office (UKHSA) standard operating […]
Preparation of Luria Broth media (LB): Yeast extract (5 g), tryptone (10 g) and sodium chloride (10 g) were dissolved in dH₂O (1 L) then divided into bottles and autoclaved.
Preparation of Luria Broth (LB) agar plates: Agar (6 g) was added to LB (400 mL) and autoclaved. Once cool, the LB agar was poured into sterile petri dishes under sterile conditions and allowed to set. LB plates were stored at 4 °C until use.
Preparation of bacterial plates: Sterile LB agar plates were streaked using Escherichia coli DH10B or USA300 Methicillin-Resistant Staphylococcus aureus then incubated at 37 °C overnight.
Preparation of Inoculum: An initial culture was made up by inoculating LB media (5 mL) with a single colony of bacteria under sterile conditions and incubated at 37 °C with shaking overnight. The following day, overnight bacterial cultures were subcultured into fresh LB medium to a starting OD600 […]
Preparation of 96 well microplate for screening: 20 mM solutions of each compound to be tested were made up using 5 % ethanol. The 1:100 cell suspension (150 µL) was pipetted into the wells and SSA compound solutions (30 µL) were added into each well. The final screening concentration for each compound was 3.3 mM in the well. These were incubated for 20 hours in a plate reader, with optical density readings being taken at 600 nm every 15 minutes. Optical density readings were plotted against time to produce growth curves. […]
individual wells under sterile conditions. Compounds (30 µL) were added to the wells to equal a total volume of 180 µL in the wells. Six repeats of each concentration for each compound were created each plate. The plates were sealed using parafilm, then incubated at 37°C in a microplate reader for 18-25 hours. Optical density readings were taken at 600 nm every 15 min. Data was used to generate […]
Calculation of MIC50: Growth curves were plotted using OD600 optical density readings in Microsoft ® Excel ® 2013. OD600 optical density readings 900 minutes from the start of each of these growth cultures for each concentration of compound were plotted in Origin ® 2015. The resultant curve was normalized and fitted using the Boltzmann fit to define the MIC50 values for each compound.

Structure (SMILES)	MIC50 [µM]
O=C(NCS(=O)(=O)O)Nc1ccc(-c2nc3ccccc3s2)cc1 [SSA 8]	1150
Cc1ccc2nc(-c3ccc(NC(=O)NCCC(=O)O)cc3)sc2c1 [SSA 9]	1200
Cc1ccc2nc(-c3ccc(NC(=O)NCCCS(=O)(=O)O)cc3)sc2c1 [SSA 10]	590
Cc1ccc2nc(-c3ccc(NC(=O)NCC(=O)O)cc3)sc2c1 [SSA 11]	310 to 630

Same assay, conditions: Staphylococcus aureus, 15 h, Table S3, conversion of the mM values of Table 1; MRSA USA300; after 900 mins

Structure (SMILES)	MIC50 [µg/mL]
O=C(NCS(=O)(=O)O)Nc1ccc(C(F)(F)F)cc1 [SSA 1]	248
O=C(O)CNC(=O)Nc1ccc(C(F)(F)F)cc1 [SSA 4]	574
O=C(NCS(=O)(=O)O)Nc1ccccc1-c1nc2ccccc2s1 [SSA 5]	599

Further lines, results first:

MIC50 [µg/mL]	Structure (SMILES)
576	Cc1ccc2nc(-c3ccc(NC(=O)NCS(=O)(=O)O)cc3)sc2c1 [SSA 6]
696	O=C(NCS(=O)(=O)O)Nc1ccc(-c2nc3ccccc3s2)cc1 [SSA 8]
760	Cc1ccc2nc(-c3ccc(NC(=O)NCCC(=O)O)cc3)sc2c1 [SSA 9]
382	Cc1ccc2nc(-c3ccc(NC(=O)NCCCS(=O)(=O)O)cc3)sc2c1 [SSA 10]
181 to 367	Cc1ccc2nc(-c3ccc(NC(=O)NCC(=O)O)cc3)sc2c1 [SSA 11]

Same assay, conditions: Staphylococcus aureus, 15 h; 3.3 mM; after 900 min; read-out: initial antimicrobial screening, inhibition of growth, MRSA

Structure (SMILES)	inhibition at 3300 µM [%]
Cc1ccc2nc(NC(=O)NCS(=O)(=O)O)sc2c1 [SSA 7]	< 10

Same assay, conditions: Table S3, conversion of the mM values of Table 1; MRSA USA300; after 900 mins

Structure (SMILES)	MIC50 MRSA [µg/mL]
O=C(NCS(=O)(=O)O)Nc1ccc(C(F)(F)F)cc1 [SSA 3]	132 (≈ 443 µM)

Same assay, conditions: Table S3; screening at 3.3 mM

Structure (SMILES)	initial antimicrobial screening outcome, MRSA
Cc1ccc2nc(NC(=O)NCS(=O)(=O)O)sc2c1 [SSA 7]	Fail

Tested on: E. coli DH10B
Assay: not given
Details: 3.3 mM; after 900 min; cited from earlier work

Structure (SMILES)	initial antimicrobial screening, inhibition of growth, E. coli
O=C(NCS(=O)(=O)O)Nc1ccc(C(F)(F)F)cc1 [SSA 3]	^c (SSA did not pass initial antimicrobial screening, exhibited <10% inhibition of growth at 3.3 mM after 900 min and therefore excluded from further study)

Same assay, conditions: E. coli DH10B; n = 3; 0.5 McFarland standard; after 900 min; number in bracket = efficacy rank; cited from earlier work

Structure (SMILES)	MIC50 E. coli
O=C(NCS(=O)(=O)O)Nc1ccc(C(F)(F)F)cc1 [SSA 1]	3.85(7) mM
O=C(NCCCS(=O)(=O)O)Nc1ccc(C(F)(F)F)cc1 [SSA 2]	1.48(3) mM
O=C(O)CNC(=O)Nc1ccc(C(F)(F)F)cc1 [SSA 4]	1.25(2) mM
O=C(NCS(=O)(=O)O)Nc1ccccc1-c1nc2ccccc2s1 [SSA 5]	3.57(5) mM
Cc1ccc2nc(-c3ccc(NC(=O)NCS(=O)(=O)O)cc3)sc2c1 [SSA 6]	5.02(8) mM

Same assay, conditions: Table S3; screening at 3.3 mM; cited from earlier work

Structure (SMILES)	initial antimicrobial screening outcome, E. coli
O=C(NCS(=O)(=O)O)Nc1ccc(C(F)(F)F)cc1 [SSA 3]	Fail
